Assay results from US20140358094A1, “COMPOSITION, THE NANO-EMULSION AND TRANSDERMAL PATCH, METHODS OF PREPARATION AND USE THEREOF FOR TREATING TRAUMATIC INJURIES” (Nano and Advanced Materials Institute Limited, priority 2013, published 2014).
Values belong to the molecule of their own block, whether it stands above or below them.

Experiment: In vitro skin diffusion study, vertical Franz diffusion cell, HPLC-ESI-MS of markers
Assay type: in vitro ADME, pig
Conditions: 24 hours; for elevation of diffusion properties, transdermal patch relative to herbal paste control, receiving medium: FIG. 4A, markers diffused in the receiving medium; for elevation of diffusion properties, transdermal patch relative to herbal paste control, pig skin: FIG. 4B, markers remained in the pig skin; for percentage by weight of marker diffused to the dermis (remained in pig skin), Herbal Paste (Control) / percentage by weight of marker in the receiving cell, Herbal Paste (Control): donor: herbal paste of Example 1; for percentage by weight of marker diffused to the dermis (remained in pig skin), Herbal Paste (Control) / percentage by weight of marker in the receiving cell, Herbal Paste (Control) / percentage by weight of marker diffused to the dermis (remained in pig skin), Transdermal Patch (Test Sample) / percentage by weight of marker in the receiving cell, Transdermal Patch (Test Sample): 37° C., pig skin; for percentage by weight of marker diffused to the dermis (remained in pig skin), Transdermal Patch (Test Sample) / percentage by weight of marker in the receiving cell, Transdermal Patch (Test Sample): donor: transdermal patch of Example 4.2
Method: A vertical Franz diffusion cell (Hanson Research, USA) is used to carry out in vitro skin diffusion study. […] The receiving medium is formed by physiological saline solution of (0.9% NaCl). The donor compartment is filled with the test sample or control sample. […] After 24 hours, contents of the receiving cell and pig skin sample are collected, the solution from the receiving cell (i.e. receiving medium) and pig skin are detected for chemical markers found therein in order to analyze the transdermal diffusion rate of the test sample and control sample. The test is performed in triplicate. HPLC-ESI-MS is used to detect diffused markers and control sample. Agilent 1290 Infinity LC system (purchased from Agilent Technologies) having a vacuum device, a binary liquid pump, an autosampler, Agilent 6410 triple quadrupole (Triple Quad) LC/MS connected with a Agilent MassHunter computer software (Workstation) is used. Acquity UPLC HSS T3 1.8 μm (2.1 mm×150 mm) column is used and the Acquity UPLC is maintained a temperature of 40° C. […] The flow rate is controlled at 0.5 mL/min, and injection volume of 20 µL. MS analysis using Agilent 6410 triple quadrupole LC/MS configured with ESI MS is carried out under negative ion mode and multiple reaction monitoring modes. Target ions of HYA is m/z 611.2->325.0; Rg1 is m/z 799.5->637.4; […] is m/z 927.5->603.3; Rb1 is m/z 1107.6->119.0; Kae is m/z 285.0->117.0; Emo is m/z 269.0->241.0; Rhe is m/z 283.0->239.0 and OA is m/z 455.3->407.4.

Molecule: CC1(C)CC[C@]2(C(=O)O[C@@H]3O[C@H](CO[C@@H]4O[C@H](CO)[C@@H](O)[C@H](O)[C@H]4O)[C@@H](O)[C@H](O)[C@H]3O)CC[C@]3(C)C(=CC[C@@H]4[C@@]5(C)CC[C@H](O[C@@H]6OC[C@H](O)[C@H](O)[C@H]6O)[C@@](C)(CO)[C@@H]5CC[C@]43C)[C@@H]2C1 [ASP6, Asperosaponin VI]
elevation of diffusion properties, transdermal patch relative to herbal paste control, receiving medium: 32 times
elevation of diffusion properties, transdermal patch relative to herbal paste control, pig skin: 33 times
percentage by weight of marker diffused to the dermis (remained in pig skin), Herbal Paste (Control): 0.0859 wt %
percentage by weight of marker in the receiving cell, Herbal Paste (Control) (receiving medium 0.9% NaCl): 0.1375 wt %
percentage by weight of marker diffused to the dermis (remained in pig skin), Transdermal Patch (Test Sample): 2.8010 wt %
percentage by weight of marker in the receiving cell, Transdermal Patch (Test Sample) (receiving medium 0.9% NaCl): 4.4904 wt %

Molecule: CC(C)=CCC[C@](C)(O[C@@H]1O[C@H](CO[C@@H]2O[C@H](CO)[C@@H](O)[C@H](O)[C@H]2O)[C@@H](O)[C@H](O)[C@H]1O)[C@H]1CC[C@]2(C)[C@@H]1[C@H](O)C[C@@H]1[C@@]3(C)CC[C@H](O[C@@H]4O[C@H](CO)[C@@H](O)[C@H](O)[C@H]4O[C@@H]4O[C@H](CO)[C@@H](O)[C@H](O)[C@H]4O)C(C)(C)[C@@H]3CC[C@]12C [Rb1, Ginsenoside Rb1]
elevation of diffusion properties, transdermal patch relative to herbal paste control, receiving medium: 472 times
elevation of diffusion properties, transdermal patch relative to herbal paste control, pig skin: 17 times
percentage by weight of marker in the receiving cell, Herbal Paste (Control) (receiving medium 0.9% NaCl): 0.0167 wt %
percentage by weight of marker in the receiving cell, Transdermal Patch (Test Sample) (receiving medium 0.9% NaCl): 7.8820 wt %

Molecule: CC(C)=CCC[C@](C)(O[C@@H]1O[C@H](CO)[C@@H](O)[C@H](O)[C@H]1O)[C@H]1CC[C@]2(C)[C@@H]1[C@H](O)C[C@@H]1[C@@]3(C)CC[C@H](O)C(C)(C)[C@@H]3[C@@H](O[C@@H]3O[C@H](CO)[C@@H](O)[C@H](O)[C@H]3O)C[C@]12C [Rg1, Ginsenoside Rg1]
elevation of diffusion properties, transdermal patch relative to herbal paste control, receiving medium: 14 times
elevation of diffusion properties, transdermal patch relative to herbal paste control, pig skin: 21 times
percentage by weight of marker in the receiving cell, Herbal Paste (Control) (receiving medium 0.9% NaCl): 1.1884 wt %
percentage by weight of marker in the receiving cell, Transdermal Patch (Test Sample) (receiving medium 0.9% NaCl): 16.3635 wt %

Molecule: O=C(O)c1cc(O)c2c(c1)C(=O)c1cccc(O)c1C2=O [Rhein]
elevation of diffusion properties, transdermal patch relative to herbal paste control, receiving medium: 21 times
elevation of diffusion properties, transdermal patch relative to herbal paste control, pig skin: 11 times
percentage by weight of marker diffused to the dermis (remained in pig skin), Herbal Paste (Control): 0.1371 wt %
percentage by weight of marker in the receiving cell, Herbal Paste (Control) (receiving medium 0.9% NaCl): 0.2299 wt %
percentage by weight of marker diffused to the dermis (remained in pig skin), Transdermal Patch (Test Sample): 1.4277 wt %
percentage by weight of marker in the receiving cell, Transdermal Patch (Test Sample) (receiving medium 0.9% NaCl): 4.8924 wt %

Molecule: CC1(C)CC[C@]2(C(=O)O)CC[C@]3(C)C(=CC[C@@H]4[C@@]5(C)CC[C@H](O)C(C)(C)[C@@H]5CC[C@]43C)[C@@H]2C1 [OA, Oleanolic Acid]
elevation of diffusion properties, transdermal patch relative to herbal paste control, pig skin: 47 times
percentage by weight of marker diffused to the dermis (remained in pig skin), Herbal Paste (Control): 0.1253 wt %
percentage by weight of marker in the receiving cell, Herbal Paste (Control) (receiving medium 0.9% NaCl): 0.0000 wt %
percentage by weight of marker diffused to the dermis (remained in pig skin), Transdermal Patch (Test Sample): 5.8588 wt %
percentage by weight of marker in the receiving cell, Transdermal Patch (Test Sample) (receiving medium 0.9% NaCl): 0.0000 wt %
detection in the receiving medium (in words) (receiving medium 0.9% NaCl): cannot be detected

Second part, the molecule after the results:

elevation of diffusion properties, transdermal patch relative to herbal paste control, receiving medium: 8 times
elevation of diffusion properties, transdermal patch relative to herbal paste control, pig skin: 41 times
percentage by weight of marker diffused to the dermis (remained in pig skin), Herbal Paste (Control): 0.0117 wt %
percentage by weight of marker in the receiving cell, Herbal Paste (Control) (receiving medium 0.9% NaCl): 2.0879 wt %
percentage by weight of marker diffused to the dermis (remained in pig skin), Transdermal Patch (Test Sample): 0.4772 wt %
percentage by weight of marker in the receiving cell, Transdermal Patch (Test Sample) (receiving medium 0.9% NaCl): 16.5104 wt %
Molecule: Hydrosafflower yellow A [HYA]

elevation of diffusion properties, transdermal patch relative to herbal paste control, receiving medium: 203 times
elevation of diffusion properties, transdermal patch relative to herbal paste control, pig skin: 5 times
percentage by weight of marker diffused to the dermis (remained in pig skin), Herbal Paste (Control): 0.2773 wt %
percentage by weight of marker in the receiving cell, Herbal Paste (Control) (receiving medium 0.9% NaCl): 0.0091 wt %
percentage by weight of marker diffused to the dermis (remained in pig skin), Transdermal Patch (Test Sample): 1.3656 wt %
percentage by weight of marker in the receiving cell, Transdermal Patch (Test Sample) (receiving medium 0.9% NaCl): 1.8494 wt %
Molecule: Cc1cc(O)c2c(c1)C(=O)c1cc(O)cc(O)c1C2=O [Emo, Emodin]

elevation of diffusion properties, transdermal patch relative to herbal paste control, receiving medium: 11 times
elevation of diffusion properties, transdermal patch relative to herbal paste control, pig skin: 12 times
percentage by weight of marker diffused to the dermis (remained in pig skin), Herbal Paste (Control): 0.7532 wt %
percentage by weight of marker in the receiving cell, Herbal Paste (Control) (receiving medium 0.9% NaCl): 6.5294 wt %
percentage by weight of marker diffused to the dermis (remained in pig skin), Transdermal Patch (Test Sample): 9.0852 wt %
percentage by weight of marker in the receiving cell, Transdermal Patch (Test Sample) (receiving medium 0.9% NaCl): 72.3590 wt %
Molecule: O=c1c(O)c(-c2ccc(O)cc2)oc2cc(O)cc(O)c12 [Kae, Kaempferol]
